System: RNA Spinach (RNA, aptamer) GGACGCGACCGAAAUGGUGAAGGACGGGUCCAGUGCGAAACACGCACUGUUGAGUAGAGUGUGAGCUCCGUAACUGGUCGCGUC
Assay: fluorescence titration
Conditions: 140 mM KCl, 1 mM MgCl2; 10 mM NaH2PO4 pH 7.2, 0.05% Tween-20, room temperature

KD: 0.42 ± 0.04 µM
Structure (SMILES): CC1=N/C(=C\c2cc(F)c(O)c(F)c2)C(=O)N1C
